One data set concerns IL-2. Kind of data set: Inhibitory activity on cytokines: IL-2 in supernatant of anti-CD3/anti-CD28 stimulated hPBMC by CBA method. The data set is classed as cell-based. The note with it: Homo sapiens, 48 h, anti-CD3/anti-CD28, 2 days incubation. On the procedure:
(§1) Human peripheral blood mononuclear cells (hPBMC); supplier: HemaCare; Article Number: PB009C-2
(§2) 96-well plates were coated with 5 μg/mL anti-human CD3 antibody (in DPBS) at […] overnight at 4° C.
(§3) PBMC were removed from liquid nitrogen and immediately placed in a 37° C. water bath for recovery. To a 15 mL centrifuge tube, 5 mL culture medium (RPMI1640 culture medium+10% fetal bovine serum+1% non-essential amino acids+1% penicillin streptomycin+0.05 mM β-mercaptoethanol) was added, and the cell suspension was pipetted to the centrifuge tube, and the mixture was centrifuged at 320 g for 5 minutes. The cells were resuspended with culture medium and counted, and the cell concentration was then adjusted to 5×10^5 cells/mL with the culture medium, To the cell suspension was added anti-human CD28 antibody (final concentration 2 μg/mL), and the mixture was inoculated into a 96-well plate at 200 μL/well.
(§4) Compounds were prepared at the desired concentration and added to the cells. The mixture was incubated at 37° C., 5% CO2 for 2 days.
The standards were prepared according to the instructions of IL-2 and TNFα Flex Set kit. The supernatant of the cultured cells was diluted 5-fold with the buffer provided in the kit and added to a 96-well plate together with the standards. The plated was added with magnetic beads containing antibody from the kit, and incubated at room temperature for 1 hour. The fluorescein PE-labeled secondary antibody in the kit was added and incubated at room temperature for 2 hours. The average fluorescence intensity of the PE channel was detected by flow cytometry. Based on the average fluorescence intensity of the standards, the contents of IL-2 and TNF-α of the samples were calculated.

Another data set deals with TNF-α. The data set can be described thus: Inhibitory activity on cytokines: TNFα in supernatant of anti-CD3/anti-CD28 stimulated hPBMC by CBA method. The class given is cell-based. The note with it: Homo sapiens, 48 h, anti-CD3/anti-CD28, 2 days incubation. On the procedure:
as §1, §2, §3, §4
The standards were prepared according to the instructions of IL-2 and TNFα Flex Set kit. […] The average fluorescence intensity of the PE channel was detected by flow cytometry. Based on the average fluorescence intensity of the standards, the contents of IL-2 and TNF-α of the samples were calculated.

Data set [1] is described as follows: Pharmacokinetic evaluation experiment in mice (intravenous or intraperitoneal injection of compound 6). The class given is in vivo, C57BL/6 mice. On the procedure: Purpose of the experiment: male C57BL/6 mice were used as test animals, and the plasma drug concentrations of the test compounds were determined by LC/MS/MS at different time points after intravenous or intraperitoneal injection. The pharmacokinetic behavior of the test compound in mice was studied to evaluate its pharmacokinetic characteristics.
Drug preparation: an appropriate amount of sample was weighed to prepare 0.3 mg/mL or 0.5 mg/mL clear solution with 40% PEG400+20% Solutol+40% H2O (volume ratio).
Administration scheme: two healthy male C57BL/6 mice purchased from Beijing Vital River Laboratory Animal Technology Co., Ltd. was on a normal diet. The intravenous injection group was administered with 0.5 mg/mL solution, with a dose volume of 2 mL/kg and a dose of 1 mg/kg. The intraperitoneal injection group was administered with 0.3 mg/mL solution, with a volume of 10 mL/kg and a dose of 3 mg/kg.
Procedure: after animal administration, 25 μL of blood was collected at 0.083, 0.25, 0.5, 1, 2, 4, 8, 12, and 24 hours, respectively and placed in a commercial anticoagulative tube pre-loaded with EDTA-K2. The tubes were centrifuged for 10 minutes to separate plasma and stored at −60° C. The content of target compound in plasma samples was determined by LC/MS/MS.

A short description of data set [2]: Pharmacokinetic evaluation in mice (intravenous administration of compound 18 or 22, 50 mg/kg). The note with it: for elimination in plasma after administration (in words): intravenous 50 mg/kg. The data set is classed as in vivo, C57BL/6 mice. On the procedure: Purpose of the experiment: male C57BL/6 mice were used as test animals, and the LC/MS/MS method was applied to determine the plasma drug concentrations of the compounds at different time points after intravenous administration. The pharmacokinetic behavior of the compounds in mice was studied, and their pharmacokinetic characteristics were evaluated.
Drug preparation: an appropriate amount of sample was weighed to prepare 5 mg/mL of clear solution with sterile normal saline.
Administration scheme: two healthy male C57BL/6 mice purchased from Beijing Vital River Laboratory Animal Technology Co., Ltd. was on a normal diet, with a volume of 10 mL/kg and a dose of 50 mg/kg.
Procedure: after animal administration, 25 μL of blood was collected at 0.083, 0.25, 0.5, 1, 2, 4, 8, 12, and 24 hours, respectively and placed in a commercial anticoagulative tube pre-loaded with EDTA-K2. The tubes were centrifuged for 10 minutes to separate plasma and stored at −60° C. The content of the corresponding compounds in plasma samples was determined by LC/MS/MS.

Data set [3] concerns bombesin-induced acute pancreatitis model in mice. The data set can be described thus: Pharmacodynamic test of bombesin-induced acute pancreatitis in mice (compound 6). The class given is in vivo, C57BL/6 mice. The note with it: compound 6 intraperitoneal 20 mg/kg; bombesin 50 μg/kg x 7; FIG. 2. On the procedure: Purpose of the experiment: male C57BL/6 mice were used as test animals, and acute pancreatitis was induced by intraperitoneal injection of bombesin. The efficacy of compound 6 on acute pancreatitis was studied.
Drug preparation: an appropriate amount of sample was weighed, and compound 6 was prepared to a 4 mg/mL clear solution with 40% PEG-400+20% Solutol+40%+H2O (v/v).
Experiment scheme: healthy male C57BL/6 mice were injected with bombesin intraperitoneally to induce pancreatitis model, at a dose of 50 μg/kg each time, with 7 injections at an interval of 1 hour. One hour after the seventh injection of bombesin, serum was taken and the levels of amylase and lipase were measured. Compound 6 was administered by intraperitoneal injection at a dose of 20 mg/kg.
Experimental results: see FIG. 2. The levels of plasma amylase (AMY) and lipase (LPS) were analyzed by one-way ANOVA, * * indicates significant difference with G1 (P<0.01), * indicates significant difference with G1 (P<0.05).

Data set [4] is described as follows: Thermodynamic solubility test. The data set is classed as physicochemical. The note with it: for solubility in water (in words): conclusion of the thermodynamic solubility test. On the procedure: About 2 mg of test compound was weighed into a whatman vial, and 450 μL of phosphate buffer (50 mM, pH=7.4) was added. The stopper of whatman vial was pressed to near the liquid level so that the filter membrane in the stopper is in uniform contact with the liquid level. The vial was shaken well up and down on vortex for two minutes, and the dissolution of test compound in the whatman vial was recorded. The whatman vial was shaken in a shaker at ambient temperature for 24 hours at a rotational speed of 600 r/min. The stopper of whatman vial was slowly pressed to the lowermost part to obtain the supernatant. […] A linear solution (3 standard solutions, 1, 20, 200 μM, n=1) was prepared with diluent. The supernatant was taken out, and 10 μL of the supernatant was accurately taken out and diluted 100 times. The obtained diluent and stock solution and linear solution were simultaneously put into HPLC for detection and analysis, and the results were calculated by an external standard method according to peak area and dilution factor.

[5] abbreviates: male, C57BL/6, mouse, plasma, intravenous injection, 1 mg/kg.
Setting [6] is: male, C57BL/6, mouse, plasma, ip, intraperitoneal injection, 3 mg/kg.
Where [7] appears, read: administered compound itself in plasma, 50 mg/kg intravenous, mice, 50 mg/kg.
Setting [8] is: male, C57BL/6, mouse, plasma, iv, 50 mg/kg, administered compound itself in plasma, 50 mg/kg intravenous, mice.

As for `O=C(Nc1cnc(-c2cc3oc(C4CC4)nc3cc2Cl)cn1)c1c(F)cccc1F` [Compound 4], the 50% inhibitory concentration (IC50) with IL-2 came to 280 nM.

`O=C(Nc1cnc(-c2cc3oc(C4CC4)cc3cc2Cl)cn1)c1c(F)cccc1F` [Compound 6] had an IC50 in the data set with TNF-α of 138 nM. Further, the “plasma exposure and pharmacokinetic properties (in words)” value in data set [1] (intravenous and intraperitoneal routes) was “higher plasma exposure and desirable pharmacokinetic properties”. Besides, the bioavailability in data set [1] (male, C57BL/6, mouse, plasma, intraperitoneal 3 mg/kg vs intravenous 1 mg/kg) stood at 125%. In data set [1] (setting [5]), this molecule showed an AUC(0-t) of 15.6 µM·h, a clearance of 2.05 mL/min/kg and a half-life of 10.6 h. The Vd in data set [1] (male, C57BL/6, mouse, plasma, intravenous injection, 1 mg/kg, read-out: Vdss) turned out to be 1.77 L/kg. Moreover, in data set [1] (setting [6]), the AUC(0-t) stood at 62.7 µM·h, the concentration peaked (Cmax) at 5.53 µM and the Tmax is 2 h. Moreover, the “formation of compound 6 in plasma (in words)” value in data set [2] (from 5 min of administration of compound 18 or 22, mice) is listed as “a large amount”. Further, in the data set with IL-2, the midpoint of inhibition, the IC50, lay at 63.8 nM. In data set [3], the “serum amylase (AMY) level” value is “significantly reduce” and the “serum lipase (LPS) level” value is on record as “significantly reduce”.

For `O=C(Nc1cnc(-c2cc3oc(C4COC4)cc3cc2Cl)cn1)c1c(F)cccc1F` [Compound 17], the IC50 came out at 328 nM in the data set with TNF-α and 173 nM in the data set on IL-2.

For `O=C(c1c(F)cccc1F)N(COP(=O)(O)O)c1cnc(-c2cc3oc(C4CC4)cc3cc2Cl)cn1` [Compound 18], the solubility (thermodynamic) at 24 h in data set [4] (aqueous buffer, thermodynamic from solid, phosphate buffer 50 mM, pH 7.4, 24 hours, ambient temperature) was > 200 µM. In addition, the “solubility in water (in words)” value in data set [4] was “very good”. In addition, the “DNAUC0-last (exposure normalized to molar dose)” value in data set [2] (setting [7]) worked out at 0.69 µM·h. Further, in data set [2] (setting [8]), the AUC(0-t) came out at 57.2 µM·h, the clearance is 25.1 mL/min/kg and the half-life is 2.49 h. Also, the Vd in data set [2] (male, C57BL/6, mouse, plasma, iv, 50 mg/kg, administered compound itself in plasma, 50 mg/kg intravenous, mice, read-out: Vdss) worked out at 0.84 L/kg. In addition, the “elimination in plasma after administration (in words)” value in data set [2] (mice) is on record as “rapidly eliminated”.

In the case of `O=C(c1c(F)cccc1F)N(COP(=O)(O)O)c1cnc(-c2cc3oc(C4CC4)cc3cc2Cl)cn1` [Compound 22], the “solubility in water (in words)” value in data set [4] is given as “very good”. For the same molecule, in data set [2] (setting [7]), the AUC0-last was 37.1 µM·h, the CL is recorded as 28.9 mL/min/kg, the “DNAUC0-last (exposure normalized to molar dose)” value stood at 0.58 µM·h and the T1/2 is reported as 2.53 h. Moreover, in data set [2] (setting [7]), the Vdss is recorded as 1.05 L/kg. Besides, the “elimination in plasma after administration (in words)” value in data set [2] (mice) was “rapidly eliminated”.

In the case of `O=C(c1c(F)cccc1F)N(COP(=O)(O)O)c1cnc(-c2cc3oc(C4CC4)cc3cc2Cl)cn1` [Compound 23], in data set [4], the “solubility in water (in words)” value was “very good”.

For the origin of these results see patent US12583846B2, “2H-benzopyran derivatives as CRAC inhibitors” (CISEN PHARMACEUTICAL CO., LTD, priority 2019, dated 2026).
